In ChEMBL document CHEMBL1201862, “PubChem BioAssay data set” (2004):
Calls of active or inactive are those of the source.

Experiments:
[1] = tested on: A-375; test: MITF: Counter assay: A375 proliferation Measured in Cell-Based System Using Plate Reader - 2084-03_Inhibitor_Dose_DryPowder_Activity. [Related pubchem assays (depositor defined):AID488944]; assay type: functional; settings: Homo sapiens
[2] = tested on: A-375; test: proliferation inhibition in MITF-low A375 cells – cell-based, cherry-pick samples, set 2, counter-screen for MITF modulator project, dose response (AID 540335); assay type: functional; settings: Homo sapiens
[3] = HEK-293T viability loss after treatment – luminescence, T-cell screen hits, cytotoxicity control for TCR NF-kB inhibitor project, dose response (AID 489026); assay type: functional, cell-based;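 also: cells exposed to compound about 14 hours before the viability readout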
[4] = target: T1, Microphthalmia-associated transcription factor (Homo sapiens, UniProt O75030); test: reducers of TRPM1 reporter luminescence, concentration series – cell-based, SK-MEL-5, cherry-picked, set 3, MITF inhibitor project, dose response (AID 493073); assay type: functional;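 also: SK-MEL-5 melanoma cells with luciferase driven by the MITF target TRPM1 promoter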
T1 sequence (O75030 whole entry): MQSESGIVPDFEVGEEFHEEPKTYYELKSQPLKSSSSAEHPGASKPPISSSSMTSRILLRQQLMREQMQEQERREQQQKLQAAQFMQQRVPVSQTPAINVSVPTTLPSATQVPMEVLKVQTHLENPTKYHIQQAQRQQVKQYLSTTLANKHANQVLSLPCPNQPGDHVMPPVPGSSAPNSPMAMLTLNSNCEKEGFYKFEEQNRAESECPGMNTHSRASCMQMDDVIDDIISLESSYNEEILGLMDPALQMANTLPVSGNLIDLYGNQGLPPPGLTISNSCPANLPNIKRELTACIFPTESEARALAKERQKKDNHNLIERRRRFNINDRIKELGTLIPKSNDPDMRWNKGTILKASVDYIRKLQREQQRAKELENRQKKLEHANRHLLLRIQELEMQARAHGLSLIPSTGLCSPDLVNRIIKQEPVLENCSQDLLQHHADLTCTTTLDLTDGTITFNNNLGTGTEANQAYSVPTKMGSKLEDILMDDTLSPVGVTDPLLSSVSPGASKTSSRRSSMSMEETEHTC

[5] = target: Nonstructural protein 1 (Influenza A virus, UniProt Q194T2); assay type: functional, Influenza A virus (A/California/07/2009(H1N1))
[6] = cells; assay type: functional
[7] = target: T2, Cysteine protease ATG4B (Homo sapiens, UniProt Q9Y4P1); assay type: functional;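 also: Fluorescence-based dose-response confirmation assay measuring inhibition of ATG4B activity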
T2 sequence (Q9Y4P1 whole entry): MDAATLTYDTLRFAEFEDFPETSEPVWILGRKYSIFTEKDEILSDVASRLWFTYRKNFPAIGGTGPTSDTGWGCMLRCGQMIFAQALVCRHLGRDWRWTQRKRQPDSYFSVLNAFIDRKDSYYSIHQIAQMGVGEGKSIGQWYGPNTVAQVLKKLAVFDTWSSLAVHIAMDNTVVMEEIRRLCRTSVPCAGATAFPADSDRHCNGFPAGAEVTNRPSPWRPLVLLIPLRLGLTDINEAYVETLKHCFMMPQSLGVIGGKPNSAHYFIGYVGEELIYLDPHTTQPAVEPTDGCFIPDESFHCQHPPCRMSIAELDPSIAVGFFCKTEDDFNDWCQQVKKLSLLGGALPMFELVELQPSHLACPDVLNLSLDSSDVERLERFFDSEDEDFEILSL

[8] = target: Phospholipase A2 (Homo sapiens, UniProt P04054); assay type: functional;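 also: confirmatory dose-response counterscreen on phospholipase A2, testing hits that came from an ultra-high-throughput screen for ATG4B inhibitors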
[9] = target: T3, Orexin/Hypocretin receptor type 1 (Homo sapiens, UniProt O43613); test: (§1) Fluorescence-based cell-based high throughput dose response assay for antagonists of the orexin 1 receptor (OX1R; HCRTR1). [Related pubchem assays (depositor defined):AID434989, AID435008, AID463079, AID485270, AID492963, AID492964, AID492965, AID493232, AID504717, AID504718]; assay type: functional
T3 sequence (O43613 whole entry): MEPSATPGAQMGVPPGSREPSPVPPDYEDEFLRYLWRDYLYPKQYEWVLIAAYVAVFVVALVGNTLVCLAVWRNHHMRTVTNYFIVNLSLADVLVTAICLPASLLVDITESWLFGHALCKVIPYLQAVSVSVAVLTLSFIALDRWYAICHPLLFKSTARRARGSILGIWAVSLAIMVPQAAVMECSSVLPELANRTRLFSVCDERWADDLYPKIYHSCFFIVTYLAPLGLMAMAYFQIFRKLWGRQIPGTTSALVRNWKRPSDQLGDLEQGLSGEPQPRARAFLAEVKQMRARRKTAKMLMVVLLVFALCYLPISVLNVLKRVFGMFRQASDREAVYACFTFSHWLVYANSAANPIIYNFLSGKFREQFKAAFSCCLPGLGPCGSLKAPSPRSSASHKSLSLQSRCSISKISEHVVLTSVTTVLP

[10] = tested on: CHO-K1; test: (§2) Counterscreen for antagonists of the orexin 1 receptor (OX1R; HCRTR1): Homogeneous time resolved fluorescence (HTRF)-based cell-based dose response assay to identify antagonists of the parental CHO-K1 cell line. [Related pubchem assays (depositor defined):AID434989, AID435008, AID463079, AID485270, AID492963, AID492964, AID492965, AID493232, AID504699, AID504701]; assay type: functional; settings: Cricetulus griseus
[11] = as §2, with “Fluorescence-based” for “Homogeneous time resolved fluorescence (HTRF)-based”, “cell-based high throughput” for “cell-based”, “CHO” for “CHO-K1”; assay type: functional
[12] = target: T3, Orexin/Hypocretin receptor type 1; test: as §1, with “Homogeneous Time Resolved Fluorescence (HTRF)-based” for “Fluorescence-based”; assay type: functional
[13] = tested on: Streptococcus; test: GAS UMAA2166 growth inhibition – luminescence, BacTiterGlo, counter-screen for streptokinase expression inhibitor project, dose response (AID 1915); assay type: functional, organism-based;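 also: potency for reduction of bacterial viability or growth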
[14] = target: T4, Zinc finger protein mex-5 (Caenorhabditis elegans, UniProt Q9XUB2); test: potency of MEX-5 RNA-binding blockers – biochemical, C. elegans, fluorescence polarization, dose response (AID 1960)
T4 sequence (Q9XUB2 whole entry): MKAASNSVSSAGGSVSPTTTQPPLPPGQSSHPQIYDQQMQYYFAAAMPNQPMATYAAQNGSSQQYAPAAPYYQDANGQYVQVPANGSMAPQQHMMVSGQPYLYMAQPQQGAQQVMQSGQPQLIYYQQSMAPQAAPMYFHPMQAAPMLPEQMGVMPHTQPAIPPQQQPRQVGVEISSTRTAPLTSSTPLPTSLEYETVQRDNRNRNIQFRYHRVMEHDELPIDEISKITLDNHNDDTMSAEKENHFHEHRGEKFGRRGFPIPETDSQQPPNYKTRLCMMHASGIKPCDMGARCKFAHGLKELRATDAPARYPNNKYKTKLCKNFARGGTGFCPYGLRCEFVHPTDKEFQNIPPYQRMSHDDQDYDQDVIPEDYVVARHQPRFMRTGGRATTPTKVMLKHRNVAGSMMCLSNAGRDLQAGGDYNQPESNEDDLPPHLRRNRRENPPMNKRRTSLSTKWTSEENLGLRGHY

[15] = tested on: Streptococcus sp. 'group A'; test: Streptococcus pyogenes SK(-)GAS viability under kanamycin – luminescence, BacTiterGlo, confirmation, counter-screen for streptokinase expression inhibitor project, dose response (AID 1900); assay type: functional, organism-based
[16] = target: T5, RNA-binding protein pos-1 (Caenorhabditis elegans, UniProt G5EF15); test: disruptors of C. elegans POS-1 RNA interaction – biochemical, fluorescence polarization, dose response (AID 1964);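 also: purified POS-1 fused to maltose binding protein made in E. coli; potency of compounds blocking POS-1 binding to fluorescent RNA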
T5 sequence (G5EF15 whole entry): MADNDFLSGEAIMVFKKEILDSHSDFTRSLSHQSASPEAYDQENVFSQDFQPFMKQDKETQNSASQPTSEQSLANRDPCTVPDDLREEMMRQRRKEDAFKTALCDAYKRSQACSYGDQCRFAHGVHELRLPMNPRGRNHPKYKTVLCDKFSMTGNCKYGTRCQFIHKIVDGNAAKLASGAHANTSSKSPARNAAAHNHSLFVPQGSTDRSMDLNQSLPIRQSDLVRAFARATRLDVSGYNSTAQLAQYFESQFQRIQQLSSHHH

[17] = luciferase reporter signal suppression in cells – H4 neuroglioma cells, luminescence, dose response (AID 1990); assay type: functional, cell-based
[18] = Luminescence Cell-Based Dose Response HTS to Identify Inhibitors of 5'UTR Stem-Loop Driven Prion Protein mRNA Translation in H4 Neuroglioblastoma Cells. [Related pubchem assays: 1827 (Project Summary), 1813 (Primary HTS)]; assay type: functional
[19] = alpha-synuclein stem-loop luciferase translation blockers – H4 neuroglioma cells, luminescence, confirmation (AID 1988); assay type: functional, cell-based
[20] = target: T6, Protein skinhead-1 (Caenorhabditis elegans, UniProt P34707); assay type: functional
T6 sequence (P34707 whole entry): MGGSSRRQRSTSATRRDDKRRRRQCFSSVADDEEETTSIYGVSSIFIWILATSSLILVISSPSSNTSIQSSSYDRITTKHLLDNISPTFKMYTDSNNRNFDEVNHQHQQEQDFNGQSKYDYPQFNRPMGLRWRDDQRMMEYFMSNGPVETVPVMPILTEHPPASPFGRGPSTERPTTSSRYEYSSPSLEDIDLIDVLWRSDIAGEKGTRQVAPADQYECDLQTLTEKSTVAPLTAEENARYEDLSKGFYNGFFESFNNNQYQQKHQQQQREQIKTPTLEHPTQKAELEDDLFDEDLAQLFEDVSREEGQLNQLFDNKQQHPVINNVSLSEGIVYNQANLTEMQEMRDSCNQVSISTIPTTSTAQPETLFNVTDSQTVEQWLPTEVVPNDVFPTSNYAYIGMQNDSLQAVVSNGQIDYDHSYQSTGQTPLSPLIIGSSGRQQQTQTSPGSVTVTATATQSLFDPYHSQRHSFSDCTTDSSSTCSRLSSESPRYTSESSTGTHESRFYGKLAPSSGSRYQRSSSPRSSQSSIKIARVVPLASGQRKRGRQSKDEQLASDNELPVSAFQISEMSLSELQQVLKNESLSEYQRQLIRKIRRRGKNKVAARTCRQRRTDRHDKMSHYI

Chain of Nonstructural protein 1 (Q194T2 whole entry): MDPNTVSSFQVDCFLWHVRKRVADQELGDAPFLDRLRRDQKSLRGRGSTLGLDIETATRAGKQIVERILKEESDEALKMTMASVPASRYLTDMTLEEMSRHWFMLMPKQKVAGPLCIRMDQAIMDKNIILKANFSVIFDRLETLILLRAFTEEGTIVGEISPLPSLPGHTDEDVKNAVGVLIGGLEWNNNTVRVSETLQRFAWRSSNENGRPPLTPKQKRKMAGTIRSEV
Chain of Phospholipase A2 (P04054 whole entry): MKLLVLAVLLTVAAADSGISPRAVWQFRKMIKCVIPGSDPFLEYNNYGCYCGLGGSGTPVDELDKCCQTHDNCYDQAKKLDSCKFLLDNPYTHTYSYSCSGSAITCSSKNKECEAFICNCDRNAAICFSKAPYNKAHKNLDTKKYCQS

What does the source list for `CC(C)C(NC(=O)OCc1ccccc1)C(=O)OCC(=O)N1CCCCC1` (stereo not given)?
AC50 [1]: > 35 µM (active); AC50 [2]: > 35 µM (active)

Which IC50 [3] does the source give for `O=C(Nc1ccc(Cl)c(S(=O)(=O)N2CCOCC2)c1)c1ccc(OCC2CCCO2)cc1` (stereo not given) here?
Its IC50 is 16.9 µM (active).

And the AC50 [4]?
Its AC50 is 3.26 µM (active).

Which IC50 [5] does the source give for `COc1cc(/C=N/NC(=S)NCCN2CCOCC2)cc(OC)c1O` here?
Its IC50 is 70.1 µM (active).

Which IC50 [6] does the source give for `O=C(N/N=C/C=C/c1ccccc1)c1ccccn1` here?
The IC50 was 11.2 µM (active).

And the AC50 [1]?
The AC50 was > 35 µM (active).

What about the AC50 [2] of the same compound?
The AC50 was > 35 µM (active).

Which IC50 [7] does the source give for `CCCc1ccc(OC(=O)c2cccs2)cc1` here?
Its IC50 is 10.7 µM (active).

And the IC50 [8]?
The IC50 was 10.2 µM (active).

With `O=C1N[C@@H](c2ccccc2)COC(=O)[C@@H](Cc2ccc(F)cc2)C/C=C\C[C@@H]1CC(=O)N(CCO)Cc1ccccc1` as the compound, how does the IC50 [9] read?
The IC50 was 13.8 µM (inactive).

And the IC50 [10]?
The IC50 was > 66.2 µM (inactive).

And the IC50 [11]?
Its IC50 is > 49.7 µM (inactive).

What about the IC50 [12] of the same compound?
Its IC50 is 12 µM (inactive).

With `Cc1ncc(CO)c(/C=N/NC(=O)c2cc(Br)ccc2O)c1O` as the compound, how does the EC50 [13] read?
The EC50 was 1.06 µM (active).

And the IC50 [5]?
Its IC50 is 11.3 µM (active).

And the EC50 [14]?
The EC50 was 5.72 µM (active).

And the EC50 [15]?
Its EC50 is 1.39 µM (active).

And the EC50 [16]?
The EC50 was > 300 µM (not active).

For `COC(=O)c1ccc(C)c(NS(=O)(=O)c2ccc3c(c2)OCCO3)c1`, which IC50 [3] is on record?
Its IC50 is > 80 µM (inactive).

What about the EC50 [17] of the same compound?
The EC50 was 8.4 µM (inconclusive).

And the EC50 [18]?
Its EC50 is 9.9 µM (active).

What about the EC50 [19] of the same compound?
Its EC50 is 1.3 µM (active).

For `CCN(CC)c1ccc(C(=S)N2CCN(c3ccccc3)CC2)cc1`, which IC50 [5] is on record?
Its IC50 is > 100 µM (active).

What about the IC50 [20] of the same compound?
The IC50 was > 100 µM (inactive).
